Type in all cases: physicochemical
One data set is described as follows: XPS surface composition. The conditions noted are these: 25% bulk drug loading with HPMCAS. As for the experimental part:
X-ray Photoelectron Spectroscopy (XPS). XPS experiments were performed using a Physical Electronics Quantera SXM instrument equipped with a monochromatic Al Kα x-ray source (hν = 1486.6 eV) and a concentric hemispherical analyzer. Charge neutralization was performed using low energy (1.5 eV) electrons and low energy (8 V) Ar^+ ions. The binding energy axis was calibrated using sputter cleaned Cu foil (Cu 2p3/2 = 932.62 eV) and Au foil (Au 4f7/2 = 83.96 eV). Spectra were charge references to C-(C,H) at 284.8 eV. All measurements were performed at an electron takeoff angle of 45° relative to the sample platen plane.

A further data set can be described thus: Log P of posaconazole. The source says: (§1) Table 1 Physical/chemical properties of posaconazole.
Data set [1] can be described thus: Two-stage biorelevant dissolution (SGF then FaSSIF). As for the experimental part:
Simulated gastric fluid (SGF) was made with sodium chloride (34.2 mM), and the pH was adjusted to 1.8 with 12N HCl. The 2× fasted state simulated intestinal fluid (FaSSIF) was prepared using simulated intestinal fluid (SIF) powder (purchased from Biorelevant.com Ltd., London, UK), sodium phosphate monobasic monohydrate (114.5 mM), and sodium chloride (423.7 mM), and the pH was adjusted to 6.9 [35, 36].
Two-stage dissolution was performed on the solid dispersion powder at the dose relevant level of drug quantity using the Distek Model 2500 dissolution system (North Brunswick, NJ USA) with USP Apparatus 2 (paddles) setup. The paddles were operated at 100 rpm, and the dissolution medium was maintained at 37 ± 0.5 °C. The SGF medium of 250 mL was added for the first stage, and then FaSSIF medium of 250 mL at 30 min was added for the second stage to achieve the correct pH, ionic strength, and bile salt levels for FaSSIF. The time points that the sample was withdrawn were indicated by the dots in the dissolution plots. At each time point, ~2 mL was sampled and syringe-filtered (0.45 µm PVDF filter). The filtrate was diluted with diluent (water:acetonitrile = 1:1 v/v) and analyzed by an Agilent HPLC (Santa Clara, CA, USA) with a UV detector. […]

A short description of data set [2]: Solubility of crystalline posaconazole.
Another data set in a line: pKa of posaconazole.
Text: as §1

In brackets after ≈: the same amount, converted by molar mass. Read-outs that look alike come from different tables or passages of the source.

Data on one compound can be found in PMC8401923, “Processing Impact on In Vitro and In Vivo Performance of Solid Dispersions—A Comparison between Hot-Melt Extrusion and Spray Drying” (Pharmaceutics, 2021).

A word on the logP: it is the decadic logarithm of the partition coefficient of the neutral form, usually between octanol and water. A higher logP goes with higher lipophilicity. Broadly, the solubility is how much of the substance goes into solution per volume. A word on the pKa: it is the pH at which an ionisable group is half protonated. A lower pKa goes with a stronger acid or weaker base. As to `CC[C@@H]([C@H](C)O)n1ncn(-c2ccc(N3CCN(c4ccc(OC[C@@H]5CO[C@@](Cn6cncn6)(c6ccc(F)cc6F)C5)cc4)CC3)cc2)c1=O` [posaconazole], in “XPS surface composition”, the “~API Loading on Surface Based on F and N” value is roughly 100%. In the data set “Log P of posaconazole”, this compound had a lipophilicity (logP) of 5. Besides, the “drug release in SGF stage (in words)” value in data set [1] (SGF pH 1.8, first 30 min) is given as “the percent dissolved is high”. For the same compound, the “drug release in FaSSIF stage (in words)” value in data set [1] (second stage, FaSSIF) is “significantly drops to approximately the crystalline solubility”. For the same compound, the solubility in data set [2] (fasted state simulated intestinal fluid (FaSSIF), fassif, read-out: Solubility) is 2 µg/mL (≈ 2.85 µM); in data set [2] (pH 1, read-out: Solubility) it was 790 µg/mL (≈ 1130 µM); in data set [2] (pH 3, read-out: Solubility), 3 µg/mL (≈ 4.28 µM); in data set [2] (pH 7, read-out: Solubility), 1 µg/mL (≈ 1.43 µM); in data set [2] (simulated gastric fluid (SGF), pH 1.8, read-out: crystalline solubility) it was roughly 790 µg/mL (≈ 1130 µM). The pKa was found to be 3.6 in “pKa of posaconazole” (piperazine N) and 4.6 in “pKa of posaconazole” (triazole N).
